We go through 15 compounds from ChEMBL document CHEMBL3991601, “The target landscape of clinical kinase drugs” (Science, 2017).

Activity calls are given as the source filed them. On the calls: in the data inactive means no Kd found up to 30 µM.

For one test, the target named is Misshapen-like kinase 1 (Homo sapiens, UniProt Q8N4C8).
The target of test [1] is Serine/threonine-protein kinase PLK1 (Homo sapiens, UniProt P53350).
Test [2] deals with T1, Tyrosine-protein kinase Mer (Homo sapiens, UniProt Q12866).
T1 sequence (Q12866 whole entry): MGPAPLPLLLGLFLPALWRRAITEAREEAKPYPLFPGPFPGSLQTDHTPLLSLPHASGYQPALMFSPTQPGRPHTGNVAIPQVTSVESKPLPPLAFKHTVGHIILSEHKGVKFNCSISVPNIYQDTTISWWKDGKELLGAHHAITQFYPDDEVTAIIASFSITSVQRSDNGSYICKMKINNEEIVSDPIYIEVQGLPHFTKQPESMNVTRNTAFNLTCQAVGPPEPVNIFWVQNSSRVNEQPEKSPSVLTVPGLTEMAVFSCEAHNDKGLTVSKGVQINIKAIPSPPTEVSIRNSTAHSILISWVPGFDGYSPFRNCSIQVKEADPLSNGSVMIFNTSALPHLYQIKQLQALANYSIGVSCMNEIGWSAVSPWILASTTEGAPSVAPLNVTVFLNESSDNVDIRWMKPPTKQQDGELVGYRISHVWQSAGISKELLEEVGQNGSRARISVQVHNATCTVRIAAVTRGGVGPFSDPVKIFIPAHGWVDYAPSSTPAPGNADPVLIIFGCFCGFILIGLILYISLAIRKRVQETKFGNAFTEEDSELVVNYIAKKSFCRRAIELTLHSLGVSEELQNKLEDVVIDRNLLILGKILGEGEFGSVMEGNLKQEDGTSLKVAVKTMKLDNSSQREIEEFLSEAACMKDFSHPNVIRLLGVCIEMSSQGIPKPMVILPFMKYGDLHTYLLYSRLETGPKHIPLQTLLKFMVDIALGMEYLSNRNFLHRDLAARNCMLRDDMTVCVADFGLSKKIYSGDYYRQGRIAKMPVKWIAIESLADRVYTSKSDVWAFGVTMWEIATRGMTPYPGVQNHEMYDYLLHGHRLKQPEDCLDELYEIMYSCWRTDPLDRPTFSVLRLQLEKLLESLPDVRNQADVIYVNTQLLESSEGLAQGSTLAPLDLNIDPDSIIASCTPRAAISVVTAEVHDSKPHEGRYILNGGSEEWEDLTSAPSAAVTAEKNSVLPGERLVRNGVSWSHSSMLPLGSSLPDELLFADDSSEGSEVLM

Test [3] deals with Serine/threonine-protein kinase pim-2 (Homo sapiens, UniProt Q9P1W9).
Chain of Serine/threonine-protein kinase pim-2 (Q9P1W9 whole entry): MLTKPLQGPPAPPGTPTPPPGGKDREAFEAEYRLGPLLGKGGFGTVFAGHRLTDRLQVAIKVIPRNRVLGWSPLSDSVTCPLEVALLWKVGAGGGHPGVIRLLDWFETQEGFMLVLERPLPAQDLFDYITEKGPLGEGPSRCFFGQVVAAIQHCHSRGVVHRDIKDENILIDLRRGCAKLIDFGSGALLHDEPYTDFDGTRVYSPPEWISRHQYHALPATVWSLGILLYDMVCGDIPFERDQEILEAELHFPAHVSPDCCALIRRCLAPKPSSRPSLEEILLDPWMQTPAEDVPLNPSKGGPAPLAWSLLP
Test [4] deals with T2, Thyroid hormone receptor-associated protein 3 (Homo sapiens, UniProt Q9Y2W1).
T2 sequence (Q9Y2W1 whole entry): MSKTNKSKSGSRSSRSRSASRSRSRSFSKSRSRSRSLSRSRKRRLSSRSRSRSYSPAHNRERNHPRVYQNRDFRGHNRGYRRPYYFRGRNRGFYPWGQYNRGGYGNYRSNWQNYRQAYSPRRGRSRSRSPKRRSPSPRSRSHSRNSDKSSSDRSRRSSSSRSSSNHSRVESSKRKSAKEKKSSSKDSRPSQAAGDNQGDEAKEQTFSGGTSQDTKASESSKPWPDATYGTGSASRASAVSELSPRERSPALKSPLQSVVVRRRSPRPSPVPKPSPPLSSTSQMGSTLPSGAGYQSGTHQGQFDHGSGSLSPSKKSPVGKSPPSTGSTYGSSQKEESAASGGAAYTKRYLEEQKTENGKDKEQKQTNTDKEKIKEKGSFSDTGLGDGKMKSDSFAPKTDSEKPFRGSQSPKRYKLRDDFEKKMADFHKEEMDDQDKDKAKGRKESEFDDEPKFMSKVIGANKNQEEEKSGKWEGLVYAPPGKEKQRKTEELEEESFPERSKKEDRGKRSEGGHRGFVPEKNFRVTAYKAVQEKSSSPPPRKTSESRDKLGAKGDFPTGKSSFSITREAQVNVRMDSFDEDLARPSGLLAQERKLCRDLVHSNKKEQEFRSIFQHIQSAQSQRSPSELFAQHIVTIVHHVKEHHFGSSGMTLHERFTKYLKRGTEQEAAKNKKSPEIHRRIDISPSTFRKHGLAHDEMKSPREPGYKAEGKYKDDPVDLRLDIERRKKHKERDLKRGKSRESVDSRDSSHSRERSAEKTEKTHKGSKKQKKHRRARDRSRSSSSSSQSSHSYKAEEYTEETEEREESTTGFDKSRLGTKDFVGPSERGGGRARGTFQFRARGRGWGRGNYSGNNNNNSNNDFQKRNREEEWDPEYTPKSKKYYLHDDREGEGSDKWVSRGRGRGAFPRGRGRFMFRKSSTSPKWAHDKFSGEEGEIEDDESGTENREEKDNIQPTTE

Test [5] concerns the target Tyrosine-protein kinase Fgr (Homo sapiens, UniProt P09769).
Test [6] addresses Serine/threonine-protein kinase 38-like (Homo sapiens, UniProt Q9Y2H1).
Test [7] deals with Phosphatidylethanolamine-binding protein 1 (Homo sapiens, UniProt P30086).
Chain of Phosphatidylethanolamine-binding protein 1 (P30086 whole entry): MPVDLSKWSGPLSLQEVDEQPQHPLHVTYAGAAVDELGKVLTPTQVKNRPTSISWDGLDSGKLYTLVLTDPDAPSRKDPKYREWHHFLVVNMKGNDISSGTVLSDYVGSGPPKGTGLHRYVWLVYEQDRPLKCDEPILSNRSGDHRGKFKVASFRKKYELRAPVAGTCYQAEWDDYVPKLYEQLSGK
In a further test the target is T3, UMP-CMP kinase (Homo sapiens, UniProt P30085).
T3 sequence (P30085 whole entry): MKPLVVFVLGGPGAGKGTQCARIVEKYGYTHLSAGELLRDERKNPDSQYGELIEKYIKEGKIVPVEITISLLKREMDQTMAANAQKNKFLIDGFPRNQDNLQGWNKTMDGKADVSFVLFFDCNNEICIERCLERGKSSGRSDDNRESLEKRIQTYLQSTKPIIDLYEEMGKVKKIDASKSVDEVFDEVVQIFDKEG

Test [8] deals with Serine/threonine-protein kinase 38 (Homo sapiens, UniProt Q15208).
Chain of Serine/threonine-protein kinase 38 (Q15208 whole entry): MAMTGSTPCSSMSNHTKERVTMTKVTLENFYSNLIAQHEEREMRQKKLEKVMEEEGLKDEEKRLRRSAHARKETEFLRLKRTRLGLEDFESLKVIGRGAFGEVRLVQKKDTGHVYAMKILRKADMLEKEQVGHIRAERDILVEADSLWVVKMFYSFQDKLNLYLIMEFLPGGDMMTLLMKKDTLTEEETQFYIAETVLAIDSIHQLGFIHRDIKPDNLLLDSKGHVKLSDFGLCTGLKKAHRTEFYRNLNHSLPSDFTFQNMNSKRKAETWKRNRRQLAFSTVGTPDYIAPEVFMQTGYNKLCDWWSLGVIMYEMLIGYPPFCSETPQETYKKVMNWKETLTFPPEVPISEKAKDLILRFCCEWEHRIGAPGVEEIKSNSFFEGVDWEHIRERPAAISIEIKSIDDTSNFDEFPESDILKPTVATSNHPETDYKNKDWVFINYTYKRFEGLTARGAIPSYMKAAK
For test [9], the target named is Cyclin-dependent kinase 10 (Homo sapiens, UniProt Q15131).
Chain of Cyclin-dependent kinase 10 (Q15131 whole entry): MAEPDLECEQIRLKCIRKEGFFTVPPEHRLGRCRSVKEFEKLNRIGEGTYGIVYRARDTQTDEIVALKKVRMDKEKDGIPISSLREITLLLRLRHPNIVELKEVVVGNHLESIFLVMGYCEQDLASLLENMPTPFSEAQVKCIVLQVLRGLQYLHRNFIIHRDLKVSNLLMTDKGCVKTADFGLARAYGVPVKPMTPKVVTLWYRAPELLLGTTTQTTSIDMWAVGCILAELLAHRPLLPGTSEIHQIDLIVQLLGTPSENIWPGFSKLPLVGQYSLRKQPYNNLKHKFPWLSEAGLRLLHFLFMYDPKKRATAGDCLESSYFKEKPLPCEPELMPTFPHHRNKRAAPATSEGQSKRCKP
Test [10] has as its target Eukaryotic peptide chain release factor GTP-binding subunit ERF3B (Homo sapiens, UniProt Q8IYD1).

Chain of Eukaryotic peptide chain release factor GTP-binding subunit ERF3B (Q8IYD1 whole entry): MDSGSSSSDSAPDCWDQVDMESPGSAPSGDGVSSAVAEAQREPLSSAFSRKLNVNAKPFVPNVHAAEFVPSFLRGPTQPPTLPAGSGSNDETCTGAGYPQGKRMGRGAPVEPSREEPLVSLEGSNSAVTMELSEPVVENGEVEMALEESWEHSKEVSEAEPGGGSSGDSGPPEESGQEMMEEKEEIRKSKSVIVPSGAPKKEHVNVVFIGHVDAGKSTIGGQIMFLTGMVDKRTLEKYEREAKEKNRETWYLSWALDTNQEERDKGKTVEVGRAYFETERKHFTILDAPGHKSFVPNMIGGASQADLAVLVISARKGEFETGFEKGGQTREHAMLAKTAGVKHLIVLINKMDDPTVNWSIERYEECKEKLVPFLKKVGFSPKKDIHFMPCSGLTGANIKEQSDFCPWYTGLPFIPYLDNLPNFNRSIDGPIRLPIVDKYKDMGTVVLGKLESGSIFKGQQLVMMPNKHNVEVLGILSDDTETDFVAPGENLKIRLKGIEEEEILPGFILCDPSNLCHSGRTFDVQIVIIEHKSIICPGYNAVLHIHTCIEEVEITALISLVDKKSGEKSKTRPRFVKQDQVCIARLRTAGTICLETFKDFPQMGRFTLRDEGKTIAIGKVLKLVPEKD
Chain of Serine/threonine-protein kinase 38-like (Q9Y2H1 whole entry): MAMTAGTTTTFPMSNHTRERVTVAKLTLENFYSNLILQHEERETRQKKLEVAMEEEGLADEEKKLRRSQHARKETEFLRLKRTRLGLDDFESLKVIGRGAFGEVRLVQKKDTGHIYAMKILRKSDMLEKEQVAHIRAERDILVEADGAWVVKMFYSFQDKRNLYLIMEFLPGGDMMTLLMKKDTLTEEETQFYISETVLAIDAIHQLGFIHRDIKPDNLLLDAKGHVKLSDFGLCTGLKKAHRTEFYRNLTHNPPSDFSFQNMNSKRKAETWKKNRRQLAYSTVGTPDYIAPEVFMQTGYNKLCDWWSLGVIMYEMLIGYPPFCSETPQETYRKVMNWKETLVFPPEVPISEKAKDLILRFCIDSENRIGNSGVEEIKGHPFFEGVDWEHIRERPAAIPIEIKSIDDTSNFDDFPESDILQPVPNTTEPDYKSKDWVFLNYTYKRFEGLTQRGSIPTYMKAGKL
Chain of Misshapen-like kinase 1 (Q8N4C8 whole entry): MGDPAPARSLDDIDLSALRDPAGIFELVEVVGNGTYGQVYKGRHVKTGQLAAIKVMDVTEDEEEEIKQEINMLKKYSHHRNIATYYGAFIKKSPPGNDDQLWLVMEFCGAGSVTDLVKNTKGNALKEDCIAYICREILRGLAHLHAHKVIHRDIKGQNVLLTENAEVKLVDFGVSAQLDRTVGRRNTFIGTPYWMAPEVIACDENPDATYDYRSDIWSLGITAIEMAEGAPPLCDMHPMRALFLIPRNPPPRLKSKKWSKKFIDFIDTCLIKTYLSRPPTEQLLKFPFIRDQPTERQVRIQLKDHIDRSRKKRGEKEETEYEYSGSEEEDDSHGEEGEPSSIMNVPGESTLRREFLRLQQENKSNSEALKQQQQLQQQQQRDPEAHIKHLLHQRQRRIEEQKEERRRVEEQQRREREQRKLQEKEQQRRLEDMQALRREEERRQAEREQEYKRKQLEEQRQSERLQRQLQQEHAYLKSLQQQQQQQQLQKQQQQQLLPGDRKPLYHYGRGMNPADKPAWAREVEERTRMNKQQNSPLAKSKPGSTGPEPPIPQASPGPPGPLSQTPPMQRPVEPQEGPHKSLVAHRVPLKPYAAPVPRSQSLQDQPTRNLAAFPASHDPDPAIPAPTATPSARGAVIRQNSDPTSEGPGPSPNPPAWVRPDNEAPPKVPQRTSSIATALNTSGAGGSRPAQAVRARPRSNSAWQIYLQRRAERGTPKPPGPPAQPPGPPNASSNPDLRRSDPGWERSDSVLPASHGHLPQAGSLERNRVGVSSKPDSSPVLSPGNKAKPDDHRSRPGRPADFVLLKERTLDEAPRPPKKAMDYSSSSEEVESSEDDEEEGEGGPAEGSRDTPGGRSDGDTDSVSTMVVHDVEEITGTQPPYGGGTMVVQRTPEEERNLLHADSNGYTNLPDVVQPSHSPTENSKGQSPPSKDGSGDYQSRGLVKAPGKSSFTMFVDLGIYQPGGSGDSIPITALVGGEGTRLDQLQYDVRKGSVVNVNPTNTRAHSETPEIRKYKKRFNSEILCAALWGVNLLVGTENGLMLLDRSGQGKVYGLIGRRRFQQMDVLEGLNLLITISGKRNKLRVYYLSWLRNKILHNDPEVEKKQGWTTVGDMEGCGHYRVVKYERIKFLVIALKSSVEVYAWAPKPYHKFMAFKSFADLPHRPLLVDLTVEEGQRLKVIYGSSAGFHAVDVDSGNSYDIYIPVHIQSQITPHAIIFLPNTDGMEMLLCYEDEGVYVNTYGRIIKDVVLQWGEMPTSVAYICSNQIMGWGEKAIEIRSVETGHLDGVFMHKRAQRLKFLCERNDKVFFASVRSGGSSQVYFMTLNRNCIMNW
Chain of Serine/threonine-protein kinase PLK1 (P53350 whole entry): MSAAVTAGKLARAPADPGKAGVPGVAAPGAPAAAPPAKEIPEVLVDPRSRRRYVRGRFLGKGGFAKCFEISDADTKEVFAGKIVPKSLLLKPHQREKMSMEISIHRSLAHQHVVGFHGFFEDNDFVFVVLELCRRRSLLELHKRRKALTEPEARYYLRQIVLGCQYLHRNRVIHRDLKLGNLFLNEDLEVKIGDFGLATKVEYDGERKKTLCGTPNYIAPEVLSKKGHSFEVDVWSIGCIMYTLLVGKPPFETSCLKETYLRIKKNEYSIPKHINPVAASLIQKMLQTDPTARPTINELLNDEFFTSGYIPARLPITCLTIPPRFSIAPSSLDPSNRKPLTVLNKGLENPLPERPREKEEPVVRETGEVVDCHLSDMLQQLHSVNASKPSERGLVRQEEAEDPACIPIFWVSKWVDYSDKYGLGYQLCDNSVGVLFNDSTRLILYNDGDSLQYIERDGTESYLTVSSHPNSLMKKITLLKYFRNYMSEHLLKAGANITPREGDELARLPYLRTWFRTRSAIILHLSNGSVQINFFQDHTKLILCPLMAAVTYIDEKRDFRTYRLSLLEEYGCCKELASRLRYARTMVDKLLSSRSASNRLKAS
Chain of Tyrosine-protein kinase Fgr (P09769 whole entry): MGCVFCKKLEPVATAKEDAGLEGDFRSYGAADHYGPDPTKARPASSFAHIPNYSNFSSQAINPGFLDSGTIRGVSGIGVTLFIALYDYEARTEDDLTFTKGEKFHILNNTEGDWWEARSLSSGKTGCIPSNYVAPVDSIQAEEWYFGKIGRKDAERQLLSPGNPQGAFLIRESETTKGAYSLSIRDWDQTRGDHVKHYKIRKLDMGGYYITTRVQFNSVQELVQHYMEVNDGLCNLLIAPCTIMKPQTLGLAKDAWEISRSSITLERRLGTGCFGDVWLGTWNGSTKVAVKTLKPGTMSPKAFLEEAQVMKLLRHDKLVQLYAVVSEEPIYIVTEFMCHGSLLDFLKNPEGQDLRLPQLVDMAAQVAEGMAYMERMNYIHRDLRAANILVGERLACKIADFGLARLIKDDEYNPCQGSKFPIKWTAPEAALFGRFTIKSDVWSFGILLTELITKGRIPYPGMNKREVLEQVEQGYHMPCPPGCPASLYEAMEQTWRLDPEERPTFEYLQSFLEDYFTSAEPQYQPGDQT

For the compound `O=C(NOC[C@H](O)CO)c1ccc(F)c(F)c1Nc1ccc(I)cc1F` [MIRDAMETINIB], the Kd (at Misshapen-like kinase 1; in test [1]; in [2]; in test [3]; in test [4]; in test [5]) was > 30 µM (inactive) throughout.
On to `CNC(=O)c1cccc(-c2ccc3c(N4CCOC[C@@H]4C)nc(N4CCOC[C@@H]4C)nc3n2)c1` [VISTUSERTIB], for which the Kd (in test [6]; in [1]; in test [7]; in test [2]; at UMP-CMP kinase; in test [4]) was > 30 µM (inactive) each time. The Kd in test [8] and in test [5] was > 30 µM (inactive) throughout.
Turning to `O=C(Nc1ccc(OC(F)(F)F)cc1)c1sccc1NCc1ccnc2ccccc12` [OSI-930], the Kd (at Misshapen-like kinase 1; in [1]; in test [2]; in [3]; in [4]; in [5]) was > 30 µM (inactive) throughout. For the same compound, the Kd (in general, a measure of binding affinity in units of concentration) in test [9] was > 30 µM (inactive).
For the compound `COc1ccc(-c2ccc3ncc4c(c3c2)n(-c2ccc(N3CCNCC3)c(C(F)(F)F)c2)c(=O)n4C)cn1` [BGT-226 FREE BASE], the Kd (on Misshapen-like kinase 1; in test [1]; in test [7]; in test [3]; at UMP-CMP kinase; in test [5]) was > 30 µM (inactive) each time.
Turning to `Cn1cc(-c2[nH]c3cc(NC(=O)[C@H](N)C4CCCCC4)cc4c3c2C=NNC4=O)cn1`, the Kd was 0.02 µM on Misshapen-like kinase 1; > 30 µM (inactive) in test [6]; > 30 µM (inactive) in test [1]; > 30 µM (inactive) in test [7]; 0.018 µM in [2]; > 30 µM (inactive) at UMP-CMP kinase. The Kd in test [5] and in [9] was > 30 µM (inactive) throughout.
With `CCc1cc2c(cc1N1CCC(N3CCOCC3)CC1)C(C)(C)c1[nH]c3cc(C#N)ccc3c1C2=O` [ALECTINIB], the Kd (in test [10]; on Misshapen-like kinase 1; in test [1]; in test [7]; in [2]; in [3]) was > 30 µM (inactive) throughout. For the same compound, the Kd (on UMP-CMP kinase; in test [4]; in test [5]; in [9]) was > 30 µM (inactive) throughout.
As to `C#Cc1cccc(Nc2ncnc3cc4c(cc23)OCCOCCOCCO4)c1` [ICOTINIB], the Kd (on Misshapen-like kinase 1; in [1]; in test [7]; in test [2]; in test [3]; on UMP-CMP kinase) was > 30 µM (inactive) each time. Moreover, the Kd in [4], in test [8] and in test [5] was > 30 µM (inactive) in each case.
In the case of `CC1(COc2ccc3c(c2)ncn3-c2ccc3cccc(N4CCC(N)CC4)c3n2)COC1` [CRENOLANIB], the Kd was > 30 µM (inactive) in test [10]; > 30 µM (inactive) in test [6]; > 30 µM (inactive) in test [1]; > 30 µM (inactive) in [7]; 0.003 µM (active) at UMP-CMP kinase; > 30 µM (inactive) in [9].
On to `COc1ccc2c(OCc3nnc4ccc(-c5ccccc5)nn34)ccnc2c1` [AMG-208], for which the Kd (in test [6]; in test [7]; in test [2]; on UMP-CMP kinase; in test [4]; in test [5]) was > 30 µM (inactive) throughout.
Consider `O=C(NC[C@H](O)CO)c1ccncc1Nc1ccc(I)cc1F` [PIMASERTIB], for which the Kd (in [10]; on Misshapen-like kinase 1; in test [1]; in [7]; on UMP-CMP kinase; in test [4]) was > 30 µM (inactive) throughout. For the same compound, the Kd in test [5] and in [9] was > 30 µM (inactive) each time.
For the compound `CC(C)CC(=O)Nc1[nH]nc2c1CN(C(=O)C1CCN(C)CC1)C2(C)C` [PHA-793887], the Kd (in [1]; in [7]; in test [3]; at UMP-CMP kinase; in [5]) was > 30 µM (inactive) in each case.
As to `C=CC(=O)Nc1cc(Nc2nccc(-c3cn(C)c4ccccc34)n2)c(OC)cc1N(C)CCN(C)C` [OSIMERTINIB], the Kd (in [10]; on Misshapen-like kinase 1; in [7]; at UMP-CMP kinase; in [4]; in test [8]) was > 30 µM (inactive) each time.
Take `O=S(=O)(c1cccc2cnccc12)N1CCCNCC1` [FASUDIL]: the Kd (in test [10]; in [7]; at UMP-CMP kinase; in [4]; in [5]) was > 30 µM (inactive) throughout.
Consider `O=S(=O)(c1cccc2c(O)nccc12)N1CCCNCC1` [HYDROXYFASUDIL], for which the Kd (in [10]; in test [6]; in test [7]; in [2]; in test [3]; on UMP-CMP kinase) was > 30 µM (inactive) throughout. Further, the Kd in [4] and in test [9] was > 30 µM (inactive) throughout.
Regarding `Cn1c(=O)n(-c2ccc(C(C)(C)C#N)cc2)c2c3cc(-c4cnc5ccccc5c4)ccc3ncc21` [DACTOLISIB], the Kd (in test [10]; at Misshapen-like kinase 1; in test [6]; in test [7]; on UMP-CMP kinase; in test [4]) was > 30 µM (inactive) each time. The Kd in test [8] is > 30 µM (inactive).
